Values quoted from earlier work, collected in patent publication US20240050950A1, “GRADIENT-BASED MICROFLUIDIC CIRCUIT, DEVICE, AND METHOD FOR PERFORMING AN ASSAY” (priority 2020, published 2024).
Counter-ions that a name gives are not always drawn. Bridge positions count the residues as written; N and C are the ends. Square brackets hold non-standard residues; d marks the D form. Peptide text beside a SMILES is read from it. * marks the point of attachment. Ileψ(thiazoline)Cys = CC[C@H](C)[C@H](N)C1=N[C@H](C(=O)*)CS1; Phe(ol) = N[C@H](CO)Cc1ccccc1; dOrn = NCCC[C@@H](N)C(=O)O; Aib = CC(C)(N)C(=O)O

conditions: Table 1, antimicrobial agents/drugs; cited from earlier work

Q: For CC(=O)NC(C)(C)C(=O)N1CCC[C@H]1C(=O)NC(C)(C)C(=O)N[C@@H](C)C(=O)NC(C)(C)C(=O)N[C@@H](C)C(=O)N[C@@H](CCC(N)=O)C(=O)NC(C)(C)C(=O)N[C@H](C(=O)NC(C)(C)C(=O)NCC(=O)N[C@@H](CC(C)C)C(=O)NC(C)(C)C(=O)N1CCC[C@H]1C(=O)N[C@H](C(=O)NC(C)(C)C(=O)NC(C)(C)C(=O)N[C@@H](CCC(=O)O)C(=O)N[C@@H](CCC(N)=O)C(=O)N[C@H](CO)Cc1ccccc1)C(C)C)C(C)C [Alamethicin] (Ac-[Aib]P[Aib]A[Aib]AQ[Aib]V[Aib]GL[Aib]PV[Aib][Aib]EQ[Phe(ol)]), which Molar volume is on record?
A: 1583.4 ± 3.0 cm^3

Q: Which Molar volume does the source give for CC(C)C[C@@H](N)[C@H](O)C(=O)N[C@H](C(=O)N[C@H](C(=O)N[C@@H](CC(=O)O)C(=O)O)C(C)C)C(C)C [Amastatin] here?
A: 386.4 ± 3.0 cm^3

Q: Which Molar volume does the source give for NCC[C@H](O)C(=O)N[C@@H]1C[C@H](N)[C@@H](O[C@H]2O[C@H](CN)[C@@H](O)[C@H](O)[C@H]2O)[C@H](O)[C@H]1O[C@H]1O[C@H](CO)[C@@H](O)[C@H](N)[C@H]1O [Amikacin] here?
A: 363.9 ± 5.0 cm^3

Q: For CC1(C)S[C@@H]2[C@H](NC(=O)[C@H](N)c3ccc(O)cc3)C(=O)N2[C@H]1C(=O)O [Amoxicillin], which Molar volume is on record?
A: 236.2 ± 5.0 cm^3

Q: Which Molar volume does the source give for C[C@@H]1[C@H](O)[C@@H](C)/C=C/C=C/C=C/C=C/C=C/C=C/C=C/[C@H](O[C@@H]2O[C@H](C)[C@@H](O)[C@H](N)[C@@H]2O)C[C@@H]2O[C@](O)(C[C@@H](O)C[C@@H](O)[C@H](O)CC[C@@H](O)C[C@@H](O)CC(=O)O[C@H]1C)C[C@H](O)[C@H]2C(=O)O [Amphotericin B (Fungizone), Amphotericin B] here?
A: 689.4 ± 5.0 cm^3

Q: Which Molar volume does the source give for CC[C@H]1OC(=O)[C@H](C)[C@@H](O[C@H]2C[C@@](C)(OC)[C@@H](O)[C@H](C)O2)[C@H](C)[C@@H](O[C@@H]2O[C@H](C)C[C@H](N(C)C)[C@H]2O)[C@@]2(C)C[C@@H](C)[C@@]3(O[C@@]1(C)[C@H](O)[C@H]3C)O2 [Anhydroerythromycin A] here?
A: 590.7 ± 5.0 cm^3

Q: Which Molar volume does the source give for COc1ccc(C[C@H]2NC[C@H](O)[C@H]2OC(C)=O)cc1 [Anisomycin (or, Flagecidin), Anisomycin] here?
A: 218.6 ± 5.0 cm^3

Q: With C[C@@]1(CO)[C@H](O)CC[C@@]2(C)[C@H]1CC[C@H]1C[C@@H]3C[C@@]12CC[C@]3(O)CO [Aphidicolin] as the compound, how does the Molar volume read?
A: 275.9 ± 5.0 cm^3

Q: Which Molar volume does the source give for COC[C@@H](C[C@H]1O[C@@](O)([C@H](O)[C@@H]2C[C@H](OC)[C@@H](O)CC/C=C(C)/C=C/[C@@H](O[C@@H]3O[C@@H](C)[C@H](OC)[C@@H](O)[C@@H]3O)[C@H](C)/C=C(C)/C=C(C)/C=C(\C)C(=O)O2)[C@H](C)[C@@H](O)[C@H]1C)OC1C[C@](C)(O)[C@@H](O[C@H]2C[C@@H](OC)[C@H](O)[C@@H](C)O2)[C@H](C)O1 (some centres unmarked) [Apoptolidin (FU 40A), Apoptolidin] here?
A: 898.5 ± 5.0 cm^3

Q: Which Molar volume does the source give for CN[C@@H]1[C@@H](O[C@H]2O[C@H](CO)[C@@H](N)[C@H](O)[C@H]2O)OC2C[C@@H](N)[C@@H](O[C@H]3[C@H](O)[C@@H](O)[C@H](N)C[C@@H]3N)OC2[C@@H]1O (some centres unmarked) [Apramycin (Nebramycin II), Apramycin] here?
A: 344.4 ± 5.0 cm^3

Q: Which Molar volume does the source give for CC(/C=C/[C@@]1(C)[C@H](C)CCC(=O)[C@@H]1C)=C\Cc1c(O)c(Cl)c(C)c(C=O)c1O [Ascochlorin (Ilicicolin D, NSC 287492), Ascochlorin] here?
A: 337.6 ± 3.0 cm^3

Q: Which Molar volume does the source give for CC[C@@H]1/C=C(\C)C[C@H](C)C[C@H](OC)[C@H]2O[C@@](O)(C(=O)C(=O)N3CCCC[C@H]3C(=O)O[C@H](/C(C)=C/[C@@H]3CC[C@@H](O)[C@H](OC)C3)[C@H](C)[C@@H](O)CC1=O)[C@H](C)C[C@@H]2OC [Ascomycin (KD4185000), Ascomycin] here?
A: 661.8 ± 5.0 cm^3

Q: For CC[C@H]1OC(=O)[C@H](C)[C@@H](O[C@H]2C[C@@](C)(OC)[C@@H](O)[C@H](C)O2)[C@H](C)[C@@H](O[C@@H]2O[C@H](C)C[C@H](N(C)C)[C@H]2O)[C@](C)(O)C[C@@H](C)CN(C)[C@H](C)[C@@H](O)[C@]1(C)O [Azithromycin], which Molar volume is on record?
A: 632.6 ± 5.0 cm^3

Q: Which Molar volume does the source give for CC[C@H](C)[C@H](N)C1=N[C@H](C(=O)N[C@@H](CC(C)C)C(=O)N[C@H](CCC(=O)O)C(=O)N[C@H](C(=O)N[C@H]2CCCCNC(=O)[C@H](CC(N)=O)NC(=O)[C@@H](CC(=O)O)NC(=O)[C@H](Cc3cnc[nH]3)NC(=O)[C@@H](Cc3ccccc3)NC(=O)[C@H]([C@@H](C)CC)NC(=O)[C@@H](CCCN)NC2=O)[C@@H](C)CC)CS1 [Bacitracin] ({Ileψ(thiazoline)Cys}-L[dE]IK[dOrn]I[dF]H[dD]N; lactam 4-C) here?
A: 994.4 ± 7.0 cm^3

Q: With CO/C1=C\C(C)=C\[C@@H](C)[C@@H](O)[C@@H](C)C/C(C)=C/C=C/[C@H](OC)[C@@H]([C@@H](C)[C@@H](O)[C@H](C)[C@@]2(O)C[C@@H](O)[C@H](C)[C@@H](C(C)C)O2)OC1=O [Bafilomycin A1 (4730700), Bafilomycin A1] as the compound, how does the Molar volume read?
A: 552.3 ± 5.0 cm^3

Q: For CO/C1=C\C(C)=C\[C@@H](C)[C@@H](O)[C@@H](C)C/C(C)=C/C=C/[C@H](OC)[C@@H]([C@@H](C)[C@@H](O)[C@H](C)[C@@]2(O)C[C@@H](OC(=O)/C=C/C(=O)NC3=C(O)CCC3=O)[C@H](C)[C@@H](C(C)C)O2)OC1=O [Bafilomycin B1], which Molar volume is on record?
A: 667.1 ± 5.0 cm^3

Q: Which Molar volume does the source give for CC(C)C[C@H](NC(=O)[C@@H](O)[C@H](N)Cc1ccccc1)C(=O)O [Bestatin (Ubenimex), Bestatin] here?
A: 257.5 ± 3.0 cm^3

Q: With Oc1c(Cl)cc(Cl)cc1Sc1cc(Cl)cc(Cl)c1O [Bithionol] as the compound, how does the Molar volume read?
A: 202.7 ± 5.0 cm^3

Q: For CN(CC[C@H](N)CC(=O)N[C@H]1C=C[C@H](n2ccc(N)nc2=O)O[C@@H]1C(=O)O)C(=N)N [Blasticidine (Blasticidin S), Blasticidin S], which Molar volume is on record?
A: 261.9 ± 7.0 cm^3

Q: Which Molar volume does the source give for C[C@@H]1C[C@H](C)C[C@H](C)[C@@H](O)CC(=O)O[C@H]([C@@H]2CCC[C@H]2C(=O)O)C/C=C/C=C(/C#N)[C@H](O)[C@@H](C)C1 [Borrelidin] here?
A: 426.5 ± 5.0 cm^3

Q: For C[C@H]1CCC/C=C/[C@@H]2C[C@H](O)C[C@H]2[C@H](O)/C=C/C(=O)O1 [Brefeldin A], which Molar volume is on record?
A: 252.9 ± 3.0 cm^3

Q: With COc1cc(/C=N/O)nc(-c2ccccn2)c1 [Caerulomycin A] as the compound, how does the Molar volume read?
A: 185.8 ± 7.0 cm^3

same assay, conditions: Table 2, anticancer drugs; cited from earlier work

Q: Which Molar volume does the source give for CC(C)Cn1cnc2c(N)nc3ccccc3c21 [Aldara (Imiquimod), Imiquimod] here?
A: 187.7 ± 7.0 cm^3

Q: Which Molar volume does the source give for Nc1nc2[nH]cc(CCc3ccc(C(=O)N[C@@H](CCC(=O)O)C(=O)O)cc3)c2c(=O)[nH]1 [Alimta (Pemetrexed Disodium), Pemetrexed Disodium] here?
A: 268.0 ± 7.0 cm^3

Q: Which Molar volume does the source give for COc1c(OCCCN2CCOCC2)ccc2c1N=C(NC(=O)c1cnc(N)nc1)N1CCN=C21 [Aliqopa (Copanlisib Hydrochloride), Copanlisib Hydrochloride] here?
A: 317.6 ± 7.0 cm^3

Q: For O=C1c2cccc3c2[C@H](CCC3)CN1[C@@H]1CN2CCC1CC2 [Aloxi (Palonosetron Hydrochloride), Palonosetron Hydrochloride], which Molar volume is on record?
A: 238.6 ± 5.0 cm^3

Q: With NCCCNCCSP(=O)(O)O [Amifostine] as the compound, how does the Molar volume read?
A: 156.6 ± 3.0 cm^3

Q: For CC(C)(C#N)c1cc(Cn2cncn2)cc(C(C)(C)C#N)c1 [Anastrozole], which Molar volume is on record?
A: 270.2 ± 7.0 cm^3

Q: For CNC(=O)c1ccc(N2C(=S)N(c3cnc(C#N)c(C(F)(F)F)c3)C(=O)C23CCC3)cc1F [Apalutamide], which Molar volume is on record?
A: 300.1 ± 5.0 cm^3

Q: For C[C@@H](O[C@H]1OCCN(Cc2n[nH]c(=O)[nH]2)[C@H]1c1ccc(F)cc1)c1cc(C(F)(F)F)cc(C(F)(F)F)c1 [Aprepitant], which Molar volume is on record?
A: 353.5 ± 7.0 cm^3

Q: For C=C1C[C@@H]2[C@H](CC[C@]3(C)C(=O)CC[C@@H]23)[C@@]2(C)C=CC(=O)C=C12 [Aromasin (Exemestane), Exemestane], which Molar volume is on record?
A: 260.5 ± 5.0 cm^3

Q: Which Molar volume does the source give for COc1nc(N)nc2c1ncn2[C@@H]1O[C@H](CO)[C@@H](O)[C@@H]1O [Arranon (Nelarabine), Nelarabine] here?
A: 149.8 ± 7.0 cm^3

Q: With N=C(N)NCc1cccc([131I])c1 [Azedra] as the compound, how does the Molar volume read?
A: 148.6 ± 7.0 cm^3

Q: For O=C(/C=C/c1cccc(S(=O)(=O)Nc2ccccc2)c1)NO [Beleodaq (Belinostat), Belinostat], which Molar volume is on record?
A: 222.9 ± 3.0 cm^3

Q: Which Molar volume does the source give for C=C(c1ccc(C(=O)O)cc1)c1cc2c(cc1C)C(C)(C)CCC2(C)C [Bexarotene (Targretin), Bexarotene] here?
A: 334.2 ± 3.0 cm^3

Q: For Cn1cnc2c(F)c(Nc3ccc(Br)cc3F)c(C(=O)NOCCO)cc21 [Binimetinib], which Molar volume is on record?
A: 264.1 ± 7.0 cm^3

Q: Which Molar volume does the source give for CC(C)C[C@H](NC(=O)[C@H](Cc1ccccc1)NC(=O)c1cnccn1)B(O)O [Bortezomib (Velcade), Bortezomib] here?
A: 316.5 ± 3.0 cm^3

Q: With COC(=O)N[C@@H](C)CNc1nccc(-c2cn(C(C)C)nc2-c2cc(Cl)cc(NS(C)(=O)=O)c2F)n1 [Braftovi (Encorafenib), Encorafenib] as the compound, how does the Molar volume read?
A: 371.6 ± 7.0 cm^3

Q: Which Molar volume does the source give for CS(=O)(=O)OCCCCOS(C)(=O)=O [Busulfan] here?
A: 182.3 ± 3.0 cm^3

Q: Which Molar volume does the source give for CO[C@H]1C(=O)[C@]2(C)[C@@H](OC)C[C@H]3OC[C@@]3(OC(C)=O)[C@H]2[C@H](OC(=O)c2ccccc2)[C@]2(O)C[C@H](OC(=O)[C@H](O)[C@@H](NC(=O)OC(C)(C)C)c3ccccc3)C(C)=C1C2(C)C [Cabazitaxel] here?
A: 635.1 ± 5.0 cm^3

Q: With CCCCCOC(=O)Nc1nc(=O)n([C@@H]2O[C@H](C)[C@@H](O)[C@H]2O)cc1F [Capecitabine (Xeloda), Capecitabine] as the compound, how does the Molar volume read?
A: 240.5 ± 7.0 cm^3

Q: For O=c1[nH]cc(F)c(=O)[nH]1 [Carac (Fluorouracil-Topical, Tolak), Fluorouracil], which Molar volume is on record?
A: 84.5 ± 5.0 cm^3

Q: For CC(C)C[C@H](NC(=O)[C@H](CCc1ccccc1)NC(=O)CN1CCOCC1)C(=O)N[C@@H](Cc1ccccc1)C(=O)N[C@@H](CC(C)C)C(=O)[C@@]1(C)CO1 [Carfilzomib (Kyprolis), Carfilzomib], which Molar volume is on record?
A: 619.5 ± 3.0 cm^3

same assay, conditions: Table 3, antifungal drugs and other molecules; cited from earlier work

Q: Which Molar volume does the source give for CC[C@H](C)C[C@H](C)CCCCCCCCC(=O)N[C@H]1C[C@@H](O)[C@@H](NCCN)NC(=O)[C@@H]2[C@@H](O)CCN2C(=O)[C@H]([C@H](O)CCN)NC(=O)[C@H]([C@H](O)[C@@H](O)c2ccc(O)cc2)NC(=O)[C@@H]2C[C@@H](O)CN2C(=O)[C@H]([C@@H](C)O)NC1=O [Caspofungin] here?
A: 803.3 cm^3
